# Key:
# MRSA USA 400 biofilms = test: Cell death in an existing biofilm, DAPI/propidium iodide staining; assay type: cell-based, Staphylococcus aureus; details: 24 h treatment; 0.008 mM to 0.125 mM; FIG. 15
# Description: For the treatment of MRSA USA 400 biofilms, the same 96 well plate assay procedure was used as described in the biofilm inhibition section above. However, the MRSA USA 400 inoculum (10^8 CFU/mL) grew overnight at 37° C. in the absence of BM3103 and without shaking. After 24 h of biofilm formation, BM3103 was serially diluted across a 96 well plate from of 1 mM to 0.002 mM. The plate was incubated again overnight at 37° C. without shaking.
# In order to confirm that treatment with BM3103 induced MRSA USA 400 bacterial cell death in the existing biofilm, both untreated cells and cells treated with BM3103 were stained with a combination of DAPI (nuclear stain) and Propidium iodide (PI, Live dead stain) as described in Example 15. MRSA USA 400 were plated in a well plate at 10^8 CFU/mL in combination with BM3103 treatment or no treatment. Plates were placed at 37° C. for 24 h. Bacteria cells were co-stained with DAPI and PI at 50 μg/mL and 500 μg/mL, respectively, for 15 min at room temperature. Wells were washed with warmed phosphate buffered saline (PBS) and maintained in PBS throughout the imaging acquisition process. Images were captured using the same exposure limits for each filter. […] Concentrations above 0.125 mM gave a similar result.
# Acinetobacter baumannii = test: Colony forming assay, 24 h plate assay, Acinetobacter baumannii; assay type: cell-based; details: Transcutol formulation, FIG. 11
# Description: Proliferating cultures of Acinetobacter baumannii were used in a colony forming assay. Frozen stock cultures of Acinetobacter baumannii were thawed and grown overnight in tryptic soy broth (TSB) with shaking at 37° C. The overnight culture (0.5-1.0 mL) was added to 100 mL TSB and grown at 37° C. with shaking and monitored for an optical density of 0.20-0.38 to obtain a final inoculum suspension of approximately 10^8 CFU/mL.
# BM3103 was dissolved into Transcutol (diethylene glycol monoethyl ether) at 2.5% w/v and vortexed until dissolved. This concentration was then serial diluted to achieve the remaining concentrations tested. Before plating, 100 μL of the final inoculum (10^8 CFU/mL) was mixed with 20 μL TSB broth and 80 μL of BM3103 doses or vehicle. Tobramycin, 600 μg/mL, served as the positive control. The final plating concentrations for BM3103 were 1, 0.5, 0.25, and 0.1% w/v (44 mM, 22 mM, 11 mM, 4 mM) BM3103. Vehicle and BM3103 formulations contained matching final concentration of 40% v/v Transcutol.
# The Transcutol formulations combined with the inoculum were plated onto TSB agar plates. The plates were grown at 37° C. for 24 h, imaged, and the bacteria colonies were counted. The experiment was done four times at each concentration level described above. Colony counts for each treatment were tabulated and the Log of the colony forming units/mL (Log CFU/mL) were determined. The mean and the standard error of the mean were calculated for each treatment.
# S. typhimurium TA98 = test: Dose range finding colony forming assay, strain TA98 with metabolic activation; assay type: cell-based
# Description: A series of dose range finding assays were performed with five bacterial strains, S. typhimurium TA97a, TA98, TA100, TA1535, and E. coli WP2 uvrA pKM101, with and without metabolic activation at three plates per dose. The following doses, along with positive and negative controls, were tested: 5000, 2500, 1250, 500, 250, 125, 50, 20, 10, 5, 2, 1, and 0.2 μg/plate. The plates were evaluated for toxicity (a decrease in plate counts with increasing dose and/or a visible thinning of the background lawn) and for precipitation of the test article. Metabolic activation was included in some samples by adding phenobarbital/benzoflavone-induced rat liver S9 fractions with cofactors (S9 mix). Prior to use, freshly thawed aliquots of rat liver S9 were mixed with a sterile cofactor mix. The S9 mix contains a 10% liver S9 concentration and was refrigerated or stored on ice until used. When testing with metabolic activation, the S9 mix was used in the assay tube in place of phosphate buffer.
# Dosing formulations were prepared to deliver all doses in a constant volume of 0.1 mL. The highest dose was prepared from test article weighed to the nearest 0.1 mg and the remaining formulations were prepared as serial dilutions from the high dose stock formulation. Using a permanent marking pen or computer printed labels, assay plates were labeled with the project and study numbers and the date. Assay plates and tubes were labeled with a unique identifier, which was used to match the assay tubes with the properly identified minimal glucose agar plate.
# The pre-incubation method was used to perform the assay. The assay mix consisted of 0.1 mL of the test article formulation or control article, 0.5 mL S9 mix or phosphate buffer, and 0.1 mL of bacterial culture. Assay tubes were incubated at 37±1° C. with gentle agitation for 20±1 minutes, then 2.0-2.5 mL top agar was added to the assay mix and the top agar/assay mix poured onto appropriately labeled minimal glucose agar plates. Once the top agar hardened, the plates were inverted and incubated at 37±1° C. for 48±2 hours. Plates were counted with the Sorcerer (v. 2.2)/Ames Study Manager (v. 1.2.4) system from Perceptive Instruments (Suffolk, UK). With this system, plate counts are automatically transferred from the plate imager (Sorcerer) to a Study Manager spreadsheet, and the data are stored in a secure manner on an Oracle database. Some plates were hand counted, e.g., if sample precipitate interferes with automatic counting or toxicity results in the formation of microcolonies, in which case, counts for these plates were entered into the spreadsheet manually. Plates were scored also with the extent of colonization by a post fix code.
smiles,measurement,setting,value
"COc1ccc(C#Cc2ccc(O)cc2)cc1 [BM3103, 4-hydroxy-4′-methoxytolan]",PI staining (cell death) in existing biofilm,MRSA USA 400 biofilms,dose dependent increase in PI staining
same,Reduction of Acinetobacter baumannii bacterial counts,Acinetobacter baumannii; 0.1%,no reduction
same,Reduction of Acinetobacter baumannii bacterial counts,Acinetobacter baumannii; 0.25%,slight reduction
same,Reduction of Acinetobacter baumannii bacterial counts,Acinetobacter baumannii; 0.5%,4 fold
same,Reduction of Acinetobacter baumannii bacterial counts,Acinetobacter baumannii; 1%,almost a complete reduction
same,Colony forming units/plate,S. typhimurium TA98; 1 μg/plate,8.0 colony forming units/plate
same,Individual colony counts,S. typhimurium TA98; 1 μg/plate,8
same,Colony forming units/plate,S. typhimurium TA98; 2 μg/plate,18.0 colony forming units/plate
same,Individual colony counts,S. typhimurium TA98; 2 μg/plate,18
same,Colony forming units/plate,S. typhimurium TA98; 5 μg/plate,16.0 colony forming units/plate
same,Individual colony counts,S. typhimurium TA98; 5 μg/plate,16
same,Colony forming units/plate,S. typhimurium TA98; 10 μg/plate,16.0 colony forming units/plate
same,Individual colony counts,S. typhimurium TA98; 10 μg/plate,16
same,Colony forming units/plate,S. typhimurium TA98; 20 μg/plate,0.0 colony forming units/plate
same,Individual colony counts,S. typhimurium TA98; 20 μg/plate,0
same,Colony forming units/plate,S. typhimurium TA98; 50 μg/plate,0.0 colony forming units/plate
same,Individual colony counts,S. typhimurium TA98; 50 μg/plate,0
same,Colony forming units/plate,S. typhimurium TA98; 125 μg/plate,0.0 colony forming units/plate
same,Individual colony counts,S. typhimurium TA98; 125 μg/plate,0
same,Colony forming units/plate,S. typhimurium TA98; 250 μg/plate,0.0 colony forming units/plate
same,Individual colony counts,S. typhimurium TA98; 250 μg/plate,0
same,Colony forming units/plate,S. typhimurium TA98; 500 μg/plate,0.0 colony forming units/plate
same,Individual colony counts,S. typhimurium TA98; 500 μg/plate,0
same,Plate postfix code (individual colony counts),S. typhimurium TA98; 500 μg/plate,A P
same,Colony forming units/plate,S. typhimurium TA98; 1250 μg/plate,0.0 colony forming units/plate
same,Individual colony counts,S. typhimurium TA98; 1250 μg/plate,0
same,Plate postfix code (individual colony counts),S. typhimurium TA98; 1250 μg/plate,A P
same,Colony forming units/plate,S. typhimurium TA98; 2500 μg/plate,0.0 colony forming units/plate
same,Individual colony counts,S. typhimurium TA98; 2500 μg/plate,0
same,Plate postfix code (individual colony counts),S. typhimurium TA98; 2500 μg/plate,A P
same,Colony forming units/plate,S. typhimurium TA98; 5000 μg/plate,0.0 colony forming units/plate
same,Individual colony counts,S. typhimurium TA98; 5000 μg/plate,0
same,Plate postfix code (individual colony counts),S. typhimurium TA98; 5000 μg/plate,A P

# Reference: patent US12678412B2, “Substituted tolans for the modulation of microbial colonization” (BioMendics, LLC, priority 2017, dated 2026)
